{
  "source": "patent US20050267091A1",
  "about": "(priority 2004, published 2005)",
  "origin": "cited, not measured here",
  "key": {"[1]": {"details": "in vivo"}, "[2]": {"assay": "not given", "remark": "listed apart in the source"}},
  "data": [
    {"smiles": "COCc1c(C(C)C)nc(C(C)C)c(/C=C/[C@@H](O)C[C@@H](O)CC(=O)O)c1-c1ccc(F)cc1", "note": "[Baycol®, cervastatin]", "values": [
      {"measurement": "deaths linked to the drug", "setting": "market withdrawal August 2001", "value": 31, "unit": "deaths"}
    ]},
    {"smiles": "CC(C)c1nc(N(C)S(C)(=O)=O)nc(-c2ccc(F)cc2)c1/C=C/[C@@H](O)C[C@@H](O)CC(=O)O", "note": "[Crestor®, rosuvastatin]", "values": [
      {"measurement": "cases of serious side effects", "setting": "cited by consumer advocacy group, March 2004", "value": 16, "unit": "cases"}
    ]},
    {"smiles": "O=C(O)c1cccnc1", "note": "[Niacin]", "values": [
      {"measurement": "increase of blood levels of HDL cholesterol", "setting": "[1]", "value": "up to 35%"},
      {"measurement": "reduction of total cholesterol", "setting": "[1]", "value": "up to 15%"},
      {"measurement": "reduction of triglyceride levels", "setting": "[1]", "value": "up to 30%"},
      {"measurement": "patients affected by flushing (redness) of the face and neck", "setting": "[2]; most common side effect", "value": "more than three quarters of patients"},
      {"measurement": "patients who discontinue because of adverse effects", "setting": "[2]; patients treated with standard niacin", "value": "more than 40%"}
    ]}
  ]
}
